Reference: US6750256B1, “Use of aromatic aldehydes as insecticides” (Proguard, Inc., priority 1994, dated 2004)

Key:
[1] = system: soft tick (Ornithodoros coriaceus); test: Tick treated filter paper test, soft ticks; format: in vivo
Description: In a double blind experiment, filter papers (90 mm) (Whatman) were treated to uniform saturation with 1 ml of test formula and placed in 90 mm petri dishes. Ten arachnids were placed in each petri dish and the dish closed. […] The cinnamic aldehyde concentrations varied from 10-50,000 ppm in a vehicle of 2% Tween 80, 6% NaHCO3. The effect of vehicle alone or H2O (HPLC) was also tested. In separate experiments, the effects of the components of the vehicle were evaluated in comparison to water.

[2] = system: adult carpenter ants (Camponotus pennsylvanicus); test: Carpenter ant spray test; format: in vivo
Description: The effect of cinnamic aldehyde on adult carpenter ants (Camponotus pennsylvanicus) was evaluated as follows. Twenty adult ants were placed in a 20 liter stainless steel pail with lid. The test formulations were prepared and used within one hour and were shaken immediately before spraying the insects. 8 ml of test solution was sprayed with a fine spray (Gilmour hand sprayer). […] Cinnamic aldehyde (2%, 20,000 ppm) in 2% Tween 80 and 6% NaHCO3 in water gave 100% mortality at all time points. Vehicle in 2% Tween 80 and 6% NaHCO3. Raid (active ingredients: permethrin, pyrethrins and PBO) was used as a positive control and gave 90% mortality at 0.5 hr with 100% mortality at all other time points.

[3] = system: two-spotted spider mite, Tetranychus urticae; test: Spider mite treated petri dish contact bioassay; format: in vivo; settings: Tetranychus urticae, 24 hours contact, read-out: Percent Mortality (24 hours)
Description: Activity of cinnamic aldehyde and/or coniferyl aldehyde against two-spotted spider mite, Tetranychus urticae is determined as follows. In a double blind experiment, intersurfaces of petri dishes (60 mm diameter) were treated with 100 μl of a test formulation and allowed to air dry and used within the hour. Twenty adult spider mites were put in each dish and the percent of mortality of the spider mites after 24 hours in contact with the treated dishes Was determined.

[4] = system: adult Aedes aegypti mosquitos; test: Mosquito adulticide treated filter paper test; format: in vivo
Description: The toxicity of the formulation for mosquitos was determined using adult Aedes aegypti mosquitos from the University of California Mosquito Control Research Laboratory at the Kearney Agricultural Center. The experiments were performed as double blind studies.
One ml test formulation was pipetted onto 11 cm #2 Whatman filter paper circle cut to fit shell vials (84 mm×23 mm) which was air dried at room temperature for two hours and placed in a shell vial (84 mm×23 mm). Twenty unblooded adult female mosquitos approximately four days of age were aspirated using gentle suction into each shell vial. The open end of the vial was covered with 1 mm nylon mesh and filter paper cut to fit for complete coverage from an 11 cm #2 Whatman filter paper circle. The vials were placed in a polyethylene mosquito bag (46 cm×20 cm) with a wet paper towel inside and loosely sealed. The bag was gently inflated by gently blowing in air and placed in an incubator at 22° C. for 24 hours with a day light cycle (14 hrs light; 10 hrs dark). Untreated paper and paper treated with H2O were used as controls. Mortality was determined by counting the number of dead mosquitos.
The efficacy of various concentrations of cinnamic aldehyde in a formulation of 2% Tween 80, 6% NaHCO3 was tested, using concentrations of cinnamic aldehyde ranging from 25,000 ppm to 10 ppm with and without the addition of saponin, 1:60 dilution of a 10° Brix solution. At concentrations down to 100 ppm added to the filter paper, 100% of the mosquitos were killed. At 10 ppm added to the filer paper, 78% of the mosquitos were killed in the absence of saponin, but only 5% with saponin 14% of mosquitos were killed with the addition of 2% Tween 80 and 6% NaHCO3 alone to the filter paper and 50% with the further addition of a 1:60 dilution 10° Brix saponin. The percent mortality is the average of three replications, with corrections for control mortality. Malathion was used as a positive control.

[5] = system: Adult male cockroaches (Dictyoptera; Blattelidae); test: German cockroach topical application bioassay; format: in vivo, German cockroaches; settings: 2% (20,000 ppm) in aqueous vehicle (2% Tween 80, 6% NaHCO3); 5 ml spray; within five minutes
Description: Adult male cockroaches (Dictyoptera; Blattelidae) were used to evaluate insecticidal activity of cinnamic aldehyde and/or coniferyl aldehyde by a topical application method.
Twenty cockroaches were placed in stainless steel pails (20 liter) with lids. After one week provisioned with food, water and harborage, they were sprayed with 5 ml of a test formulation at arm's length (approximately 1 meter) using a Gilmour spray bottle. The number of dead or moribund cockroaches at 5 minutes, 30 minutes, 1 hour and 12 hours after treatment was counted and compared to those untreated (diluent only). Raid (active ingredients: permethrin, pyrethrins and PBO) was used as a positive control. Within five minutes, all cockroaches treated with 2% cinnamic aldehyde (20,000 ppm) in aqueous vehicle (2% Tween 80, 6% NaHCO3) were dead, as were all those treated with Raid. Ten percent of those treated with vehicle alone were dead in 30 minutes, with no further increase in mortality up to 12 hours.

[6] = 10 ppm in 2% Tween 80 and 6% NaHCO3
[7] = 100 ppm in 2% Tween 80 and 6% NaHCO3
[8] = 2,500 ppm in 2% Tween 80 and 6% NaHCO3
[9] = 5,000 ppm in 2% Tween 80 and 6% NaHCO3
[10] = 12,500 ppm in 2% Tween 80 and 6% NaHCO3
[11] = 25,000 ppm in 2% Tween 80 and 6% NaHCO3
[12] = 24 h, read-out: Percent Mortality CNMA (PGXL)

O=C/C=C/c1ccccc1 [CNMA, cinnamic aldehyde]
Number Dead 24 Hours (#/30) [1, 6]: 0 #/30 | Number Dead 120 Hours (#/30) [1, 6]: 0 #/30 | Number Dead 24 Hours (#/30) [1, 7]: 0 #/30 | Number Dead 120 Hours (#/30) [1, 7]: 0 #/30 | Number Dead 24 Hours (#/30) [1, 8]: 2/30 | Number Dead 120 Hours (#/30) [1, 8]: 6/30 | Number Dead 24 Hours (#/30) [1, 9]: 3/30 | Number Dead 120 Hours (#/30) [1, 9]: 6/30 | Number Dead 24 Hours (#/30) [1, 10]: 5/30 | Number Dead 120 Hours (#/10) [1, 10]: 10/10 | Number Dead 120 Hours (#/30) [1, 10]: 6/30 | Number Dead 24 Hours (#/30) [1, 11]: 7/30 | Number Dead 120 Hours (#/10) [1, 11]: 10/10 | Number Dead 120 Hours (#/30) [1, 11]: 21/30 | Number Dead 120 Hours (#/10) ([1]; 30,000 ppm in 2% Tween 80 and 6% NaHCO3): 10/10 | Number Dead 120 Hours (#/10) ([1]; 35,000 ppm in 2% Tween 80 and 6% NaHCO3): 10/10 | Number Dead 120 Hours (#/10) ([1]; 40,000 ppm in 2% Tween 80 and 6% NaHCO3): 10/10 | Number Dead 120 Hours (#/10) ([1]; 45,000 ppm in 2% Tween 80 and 6% NaHCO3): 10/10 | Number Dead 120 Hours (#/10) ([1]; 50,000 ppm in 2% Tween 80 and 6% NaHCO3): 10/10 | mortality at 12500 ppm ([1]; Ornithodoros coriaceus): 100% | mortality at 20000 ppm [2]: 100% | mortality at 10 ppm ([3]; 10 ppm in 2% Tween 80, 6% NaHCO3): 51.7% | mortality at 100 ppm ([3]; 100 ppm in 2% Tween 80, 6% NaHCO3): 56% | mortality at 2500 ppm ([3]; 2,500 ppm in 2% Tween 80, 6% NaHCO3): 78% | mortality at 5000 ppm ([3]; 5,000 ppm in 2% Tween 80, 6% NaHCO3): 66.4% | mortality at 12500 ppm ([3]; 12,500 ppm in 2% Tween 80, 6% NaHCO3): 98.6% | mortality at 25000 ppm ([3]; 25,000 ppm in 2% Tween 80, 6% NaHCO3): 99.2% | mosquitos killed ([4]; 10 ppm added to the filter paper, in the absence of saponin): 78% | mosquitos killed ([4]; 10 ppm added to the filter paper, with saponin): 5% | mortality at 10 ppm [4, 12]: 78% | mortality at 100 ppm [4, 12]: 100% | mortality at 2500 ppm [4, 12]: 95% | mortality at 5000 ppm [4, 12]: 100% | mortality at 12500 ppm [4, 12]: 100% | mortality at 25000 ppm [4, 12]: 100% | mosquitos killed ([4]; concentrations down to 100 ppm added to the filter paper): 100% | cockroaches dead [5]: all
